According to US20240197852A1, “PSORALEN-I[…] G[…] AND METHODS THEREOF” (Wake Forest University Health Sciences, priority 2021, published 2024):

How the values were obtained:
GC strain FA1090 [1] = assay: one round of AMT and UV light crosslinking of GC, plating, percent cell survival; type: cell-based, Neisseria gonorrhoeae; conditions: 1 Joule/cm^2
Method: (§1) Psoralen Inactivation: GC strains were grown overnight on GC agar plates. Overnight growth (between 16 and 18 hours) was resuspended in 5 mls of GCP and OD600 was adjusted to 1.0. Cells were diluted 2:25 in 5 mls GCP supplemented with sodium bicarbonate and Isovitalex and grown at 37 °C in the shaker for 7 hours at which time AMT was added and the cultures were incubated in the shaker for another hour. All bacterial cultures were then moved into 6 well cell culture plates and treated with 1 Joule/cm^2 UV light using an Analytik Jena Crosslinker with UVA light source (365 nm) (model #CL-1000L, Upland, CA). Cultures were returned to tubes and a second dose of AMT was added. Cultures were shaken for 1 hour at 37 °C and then crosslinked again at the same UV dose. Samples were washed in PBS and then plated on GC agar and incubated for two days at 37 °C and 5% CO2 to measure growth as an indication of the presence of residual CFU.
(§2) Evaluating the use of a GC uvrB mutants: In order to examine the effect of a mutation in the uvrB locus that affects DNA repair GC strains FA1090 and its derivatives 1-81-S2 (uvrB:kan #4 Opa+) and 1-81-S2 (uvrB:kan #9) were tested. uvrB mutants have been used by other labs to reduce the amount of 8-MOP or S-59 needed to inactivate bacterial cells and to therefore leave them with higher metabolic activity (KBMA). FA1090 and mutant strains were treated with varying doses of AMT, grown for one hour at 37 °C, and then irradiated with UVA at 1 Joule/cm^2. The entire culture was washed and plated onto a single plate. Surviving colonies were counted and compared to live cultures to determine percent cell survival. Multiple cultures of each strain were tested at each dosage level. (see Table 3).

[2] = test system: FA1090 uvrB mutant strain 1-81-S2 (uvrB:kan #4 Opa+); assay: one round of AMT and UV light crosslinking of GC uvrB mutant, plating, percent cell survival; type: cell-based, Neisseria gonorrhoeae; conditions: 1 Joule/cm^2
Method: as §1, §2

[3] = test system: FA1090 uvrB mutant strain 1-81-S2 (uvrB:kan #9); assay: as above; type: cell-based, Neisseria gonorrhoeae; conditions: 1 Joule/cm^2
Method: as §1, §2

E. coli strain H10407 [4] = assay: two doses of AMT and two rounds of UVA on E. coli, plating for surviving CFU; type: cell-based; conditions: for CFUs of treated cells / Percent Survival: 1 Joule/cm^2 two times
Method: as §1
(§3) Early experiments on the effects of different doses of 8-MOP, AMT, and of UV on bacterial cells were done in E. coli strain H10407 due to its relative ease and speed of growth. H10407 was diluted 1:500 in LB and grown for 5 hours at 37 °C in a shaker. Psoralen inactivation was performed as described for GC. Bacterial cells were washed and inoculated into LB broth or plated onto LB agar to measure overnight growth as an indication of the presence of residual CFU.
The desire was a method to inactivate the culture consistently with AMT. E. coli strain H10407 was treated with AMT and UVA as before, but then immediately retreated the same culture once again with AMT at the same dosage, allowing the culture to shake for 1 hour, and then crosslinking it a second time and plating the cells to see which cultures would still have surviving cells capable of growth. By plating the cells and comparing to the CFUs of an untreated culture we were able to determine a percentage of surviving cells. Multiple cultures were treated at every drug dose. (See Table 2)
Thirty separate 1 ml cultures of H10407 were grown, treated with AMT at a dose of 40 μg/ml two times, and given 1 Joule/cm^2 of UVA two times and allowed to grow overnight on LB plates. […] LB plates were kept for multiple days to ensure there was no later growth.

E. coli strain H10407 [5] = assay: AMT and UVA crosslinking of E. coli (one round), overnight growth in LB broth; type: cell-based
Method: as §1, §3
We then used the psoralen derivative 4-aminomethyl-4,5′, 8-trimethylpsoralen (AMT). Multiple separate cultures of the E. coli strain H10407 were treated with doses of psoralen derivative 4-aminomethyl-4,5′, 8-trimethylpsoralen (AMT) ranging from 0 to 60 μg/ml and treated with 1 Joule/cm^2, 7 Joules/cm^2, or 10 Joules/cm^2 UVA light and then diluted into LB broth and grown overnight. […] Control cultures that received no treatment always grew up overnight as did cultures that only received AMT and no UVA or UVA treatment with no AMT. Heat killed cultures never grew up overnight. […] (See Table 1). Cultures that had no growth were left to grow for 3 more days to make sure that no growth came up later.

GC strain FA1090 [6] = assay: two rounds of AMT and UVA on GC, plating on GC agar for survivors; type: cell-based, Neisseria gonorrhoeae; conditions: thirty 1 ml cultures, approximately 3×10^10 cells; 20 μg/ml AMT and 1 Joule/cm^2 UVA two times
Method: as §1
To get consistent inactivation of GC we treated FA1090 with two rounds of AMT and UVA. Thirty separate 1 ml cultures of FA1090 were given 20 μg/ml AMT and irradiated with 1 Joule/cm^2 UVA two times and plated onto 30 GC agar plates and grown for two days.

E. coli strain H10407 [7] = assay: 8-MOP and UVA crosslinking of E. coli, overnight growth in LB broth; type: cell-based; conditions: 50, 60, 70, or 80 μg/ml 8-MOP; 1 Joule/cm^2 or 7 Joules/cm^2 UVA
Method: as §3
Inactivation of E. coli with AMT+UVA light: Other labs had previously reported the use of the psoralen derivatives 8-MOP or S-59/psoralen and UVA light to inactivate bacterial cultures containing DNA repair mutations. In order to determine if a bacterial culture not containing a DNA repair mutation with 8-MOP and UVA crosslinking could be inactivated, E. coli strain H10407 was used. Multiple separate cultures of this strain were treated with 50, 60, 70, or 80 μg/ml 8-MOP and treated with 1 Joule/cm^2 or 7 Joules/cm^2 UVA light and then diluted into LB broth and grown overnight. If even one cell in each culture survived the treatment with 8-MOP and UVA, it was expected to see growth in the overnight culture. Control cultures that received UVA but no 8-MOP, 8-MOP but no UVA, and no UVA or 8-MOP were also included. Heat killed cultures were diluted and grown overnight as a negative control.

Compound: Cc1oc2c(C)c3oc(=O)cc(C)c3cc2c1CN [AMT, 4-aminomethyl-4,5′, 8-trimethylpsoralen]
- Percent Cell Survival (GC strain FA1090 [1]; AMT 2 ug/ml): 7.85 × 10^−6%
- Percent Cell Survival (GC strain FA1090 [1]; AMT 5 ug/ml): 1.23 × 10^−6%
- Percent Cell Survival (GC strain FA1090 [1]; AMT 7 ug/ml): 0%
- Percent Cell Survival (GC strain FA1090 [1]; AMT 10 ug/ml): 0%
- Percent Cell Survival (GC strain FA1090 [1]; AMT 30 ug/ml): 0%
- Percent Cell Survival (GC strain FA1090 [1]; AMT 50 ug/ml): 0%
- Percent Cell Survival (GC strain FA1090 [1]; AMT 70 ug/ml): 2.56 × 10^−7%
- Percent Cell Survival (GC strain FA1090 [1]; AMT 100 ug/ml): 0%
- Percent Cell Survival ([2]; AMT 2 ug/ml): 5.56 × 10^−8%
- Percent Cell Survival ([2]; AMT 5 ug/ml): 0%
- Percent Cell Survival ([2]; AMT 7 ug/ml): 0%
- Percent Cell Survival ([2]; AMT 10 ug/ml): 0%
- Percent Cell Survival ([2]; AMT 30 ug/ml): 0%
- Percent Cell Survival ([2]; AMT 50 ug/ml): 0%
- Percent Cell Survival ([2]; AMT 70 ug/ml): 1.11 × 10^−6%
- Percent Cell Survival ([2]; AMT 100 ug/ml): 0%
- Percent Cell Survival ([3]; AMT 2 ug/ml): 7.23 × 10^−7%
- Percent Cell Survival ([3]; AMT 5 ug/ml): 4.0 × 10^−7%
- Percent Cell Survival ([3]; AMT 7 ug/ml): 6.3 × 10^−8%
- Percent Cell Survival ([3]; AMT 10 ug/ml): 0%
- Percent Cell Survival ([3]; AMT 30 ug/ml): 0%
- Percent Cell Survival ([3]; AMT 50 ug/ml): 0%
- Percent Cell Survival ([3]; AMT 70 ug/ml): 0%
- Percent Cell Survival ([3]; AMT 100 ug/ml): 0%
- CFUs of treated cells (E. coli strain H10407 [4]; AMT 10 ug/ml two doses): 79
- Percent Survival (E. coli strain H10407 [4]; AMT 10 ug/ml two doses): 2.6 × 10^−6%
- CFUs of treated cells (E. coli strain H10407 [4]; AMT 30 ug/ml two doses): 2
- Percent Survival (E. coli strain H10407 [4]; AMT 30 ug/ml two doses): 5 × 10^−8%
- CFUs of treated cells (E. coli strain H10407 [4]; AMT 35 ug/ml two doses): 55
- Percent Survival (E. coli strain H10407 [4]; AMT 35 ug/ml two doses): 6.1 × 10^−7%
- CFUs of treated cells (E. coli strain H10407 [4]; AMT 40 ug/ml two doses): 0
- Percent Survival (E. coli strain H10407 [4]; AMT 40 ug/ml two doses): 0%
- surviving cells capable of growth (E. coli strain H10407 [4]; thirty 1 ml cultures, approximately 3.7×10^10 cells, 40 μg/ml AMT and 1 Joule/cm^2 UV two times): no cells still capable of growth
- Percentage of cultures inactivated (E. coli strain H10407 [5]; AMT 20 ug/ml, 1 Joule/cm^2): 0%
- number of cultures inactivated (no overnight growth) / total cultures treated (E. coli strain H10407 [5]; AMT 20 ug/ml, 1 Joule/cm^2): 0/5
- Percentage of cultures inactivated (E. coli strain H10407 [5]; AMT 20 ug/ml, 7 Joules/cm^2): 67%
- number of cultures inactivated (no overnight growth) / total cultures treated (E. coli strain H10407 [5]; AMT 20 ug/ml, 7 Joules/cm^2): 2/3
- Percentage of cultures inactivated (E. coli strain H10407 [5]; AMT 30 ug/ml, 1 Joule/cm^2): 0%
- number of cultures inactivated (no overnight growth) / total cultures treated (E. coli strain H10407 [5]; AMT 30 ug/ml, 1 Joule/cm^2): 0/5
- Percentage of cultures inactivated (E. coli strain H10407 [5]; AMT 30 ug/ml, 7 Joules/cm^2): 33%
- number of cultures inactivated (no overnight growth) / total cultures treated (E. coli strain H10407 [5]; AMT 30 ug/ml, 7 Joules/cm^2): 1/3
- Percentage of cultures inactivated (E. coli strain H10407 [5]; AMT 40 ug/ml, 1 Joule/cm^2): 60%
- number of cultures inactivated (no overnight growth) / total cultures treated (E. coli strain H10407 [5]; AMT 40 ug/ml, 1 Joule/cm^2): 3/5
- Percentage of cultures inactivated (E. coli strain H10407 [5]; AMT 50 ug/ml, 1 Joule/cm^2): 82%
- number of cultures inactivated (no overnight growth) / total cultures treated (E. coli strain H10407 [5]; AMT 50 ug/ml, 1 Joule/cm^2): 9/11
- Percentage of cultures inactivated (E. coli strain H10407 [5]; AMT 50 ug/ml, 7 Joules/cm^2): 78%
- number of cultures inactivated (no overnight growth) / total cultures treated (E. coli strain H10407 [5]; AMT 50 ug/ml, 7 Joules/cm^2): 7/9
- Percentage of cultures inactivated (E. coli strain H10407 [5]; AMT 50 ug/ml, 10 Joules/cm^2): 80%
- number of cultures inactivated (no overnight growth) / total cultures treated (E. coli strain H10407 [5]; AMT 50 ug/ml, 10 Joules/cm^2): 12/15
- Percentage of cultures inactivated (E. coli strain H10407 [5]; AMT 60 ug/ml, 1 Joule/cm^2): 80%
- number of cultures inactivated (no overnight growth) / total cultures treated (E. coli strain H10407 [5]; AMT 60 ug/ml, 1 Joule/cm^2): 4/5
- inactivation of cultures (overnight growth) (E. coli strain H10407 [5]; AMT up to 60 μg/ml, 1, 7 or 10 Joules/cm^2 UVA, one round): sometimes completely inactivated
- survivors after plating on GC agar, two days (GC strain FA1090 [6]): No survivors were detected

Compound: COc1c2occc2cc2ccc(=O)oc12 [8-MOP, 8-methoxypsoralen]
- inactivation of cultures (overnight growth) (E. coli strain H10407 [7]): not inactivated
